According to PubChem BioAssay (NCI):
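Method: 48-hour compound exposure of cells in 96-well plates, five concentrations, linear interpolation of endpoints. The concentration for full growth arrest is given as TGI.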

Experiments:
Assay in all cases: NCI anticancer screen, dose series, 48 h
[1] = system: TK-10 renal
[2] = system: NCI-H226 lung
[3] = system: SNB-75 CNS
[4] = system: EKVX NSCLC
[5] = system: SK-MEL-2 melanoma
[6] = system: MALME-3M melanoma
[7] = system: IGROV1 ovarian
[8] = system: SN12C renal
[9] = system: 786-0 renal
[10] = system: SF-268 CNS
[11] = system: HCT-15 colon
[12] = system: BT-549 breast
[13] = system: NCI-H460 lung
[14] = system: KM12 colon
[15] = system: HL-60(TB) leukemia
[16] = system: CCRF-CEM leukemia
[17] = system: HCC-2998 colon
[18] = system: HOP-92 NSCLC

SMILES	TGI [1]	TGI [2]	TGI [3]	TGI [4]	TGI [5]	TGI [6]	TGI [7]	TGI [8]	TGI [9]	TGI [10]	TGI [11]	TGI [12]	TGI [13]	TGI [14]	TGI [15]	TGI [16]	TGI [17]	TGI [18]
CCCCP(CCCC)(CCCC)=C(C(=O)OC)C(C(=O)OC)=C1SC(C(=O)OC)=C(C(=O)OC)S1	> 100 µM	45 µM	45.4 µM	68.5 µM	63.1 µM	41.1 µM	23.8 µM	29.8 µM	40 µM	> 100 µM	96 µM	30.9 µM	35.9 µM					
COC(=O)CCC(=O)c1ccc2c(c1)CC1(C2)Cc2ccc3c(c2C1)CCCC3=O (configuration not stated)	> 100 µM	85.6 µM	> 100 µM	> 100 µM	36.9 µM	> 68.1 µM	> 100 µM	> 100 µM	> 85.2 µM	> 100 µM	> 67.4 µM		> 100 µM	> 85 µM	13.4 µM	11 µM	> 93.9 µM	64.7 µM
COc1cc2c(cc1O)C(C)Cc1cc3c(cc1N(C)CC2)OCO3 (configuration not stated)	> 91.4 µM	19.3 µM	9 µM	> 34.9 µM	38.1 µM	20.1 µM	73.3 µM	18.3 µM	17.4 µM	36.2 µM	42.7 µM		37.7 µM	17.8 µM	> 58.8 µM	> 46.8 µM	19.5 µM	18 µM
CC1=NN(C(=O)Cc2ccccc2)C(=O)/C1=C\c1ccco1	> 100 µM	> 100 µM	> 100 µM	> 100 µM	> 100 µM	> 100 µM		> 100 µM	> 100 µM	> 100 µM	> 100 µM			> 100 µM	> 100 µM	> 100 µM	> 100 µM	
Cc1nc2c(ncn2CCO)c(=O)[nH]1	> 100 µM	> 100 µM	> 100 µM	> 100 µM		> 100 µM	> 100 µM	> 100 µM	> 100 µM	> 100 µM	> 100 µM		> 100 µM	> 100 µM	> 100 µM	> 100 µM	> 100 µM	
COc1cc(C=O)c(-c2cc3c(cc2C=O)OCO3)c(OC)c1OC	> 290 µM	280 µM		> 290 µM	190 µM	> 290 µM	> 290 µM	260 µM	> 290 µM	> 290 µM	279 µM		> 290 µM	159 µM	> 290 µM	> 290 µM	> 290 µM	241 µM
CCOC(=O)/C=C/c1ccccn1	> 100 µM	> 100 µM	> 100 µM	> 100 µM	> 100 µM	> 100 µM	> 100 µM	> 100 µM	> 100 µM	> 100 µM	> 100 µM		> 100 µM	> 100 µM	> 100 µM	> 100 µM	> 100 µM	> 100 µM
CN1OC2OC(=O)OC2[C@H]1[C@H]1O[C@H](c2ccccc2)OC1(C)c1cc(OC(=O)c2ccccc2)ccc1OC(=O)c1ccccc1 (some centres not stated)	> 50 µM	> 50 µM	> 50 µM	> 50 µM	> 50 µM	> 50 µM	> 50 µM	> 50 µM	> 50 µM	> 50 µM	> 50 µM		> 50 µM	> 50 µM	> 50 µM	> 50 µM		> 50 µM
CC(C)(C)NC1C2CCC(C)(C1O)C2(C)C (configuration not stated)	> 100 µM		26.2 µM	> 100 µM	> 100 µM	> 100 µM	> 100 µM		> 100 µM	> 100 µM	> 100 µM	> 100 µM	> 100 µM	> 100 µM			> 100 µM	
O=C(Nc1c(Cl)cc([N+](=O)[O-])cc1Cl)/C(=N\Nc1cccc(Cl)c1)c1c(O)c2ccccc2oc1=O	> 100 µM			> 100 µM	> 100 µM	> 100 µM	> 100 µM	> 100 µM	> 100 µM	> 100 µM			> 100 µM	> 100 µM	> 100 µM	> 100 µM	> 100 µM	
Cc1cc(NCCCCCCNc2cc(C)nc3ccc(Cl)cc23)c2cc(Cl)ccc2n1	62.1 µM	> 100 µM	35.5 µM	30.4 µM	46 µM	75.6 µM		47.2 µM	32 µM	32.5 µM	33.1 µM		29.8 µM	30.9 µM	47.8 µM	83.6 µM	30.3 µM	
O=C1NN(c2ccccc2)C(=O)C2C3c4ccccc4C(c4ccccc43)C12 (configuration not stated)	> 100 µM	> 100 µM	> 100 µM	> 100 µM	> 100 µM	> 100 µM	> 100 µM	> 100 µM	> 100 µM	> 100 µM	> 100 µM		> 100 µM	> 100 µM		> 100 µM	> 100 µM	> 100 µM
O=C(CSc1nnc(-c2ccc(N=Cc3ccc(Cl)cc3)cc2)o1)Nc1cccc(Cl)c1	> 100 µM	> 100 µM	> 100 µM	> 100 µM	> 100 µM	> 100 µM		> 100 µM	> 100 µM	> 100 µM	> 100 µM		> 100 µM	> 100 µM	> 100 µM	> 100 µM		
S=C(Nc1ccccc1)N1N=C2c3ccccc3CC[C@H]2[C@@H]1c1ccccc1	> 100 µM	> 100 µM		> 100 µM	> 100 µM	> 100 µM	> 100 µM	> 100 µM	> 100 µM	> 100 µM	> 100 µM		> 100 µM	> 100 µM	4.83 µM		> 100 µM	
CC(=O)NC(CCCCNC(=O)N(C)N=O)C(=O)NCc1ccccc1 (configuration not stated)	> 100 µM	> 100 µM	> 100 µM	> 100 µM	> 100 µM	> 100 µM	> 100 µM	> 100 µM	> 100 µM	> 100 µM	> 100 µM		> 100 µM	> 100 µM		> 100 µM	> 100 µM	> 100 µM
O=c1[nH]c(=O)n(C2CC(O)C(CO)O2)cc1C#Cc1cc(F)cc(F)c1 (configuration not stated)		> 100 µM	> 100 µM	> 100 µM	> 100 µM	> 100 µM	> 100 µM	> 100 µM	> 100 µM	> 100 µM	> 100 µM		> 100 µM	> 100 µM		> 100 µM	> 100 µM	
O=C(c1ccccc1)c1c(CNCc2ccccc2)n(C(=O)c2ccccc2)c2ccccc12	> 100 µM	> 100 µM	27.5 µM		> 100 µM	> 100 µM	> 100 µM		> 100 µM	> 100 µM	> 100 µM		> 100 µM	87.8 µM	98.7 µM	> 100 µM	> 100 µM	82.1 µM
Cc1cc2[nH]c3c(C#N)c(-c4ccccc4)c(CN4CCOCC4)c(=O)n3c2cc1C	> 100 µM	> 100 µM	> 100 µM	> 100 µM	> 100 µM	> 100 µM		> 100 µM	> 100 µM	> 100 µM	> 100 µM	> 100 µM	> 100 µM	> 100 µM		> 100 µM	> 100 µM	
N#Cc1c2nc3ccccc3nc2n2ccc3ccccc3c12	> 100 µM	> 100 µM	> 100 µM	> 100 µM	> 100 µM	> 100 µM	> 100 µM	> 100 µM	> 100 µM	> 100 µM	> 100 µM		> 100 µM	> 100 µM	> 100 µM	> 100 µM	> 100 µM	> 100 µM
CCOP(C)(=O)C(Nc1ccc(F)cc1)c1ccc(F)cc1 (configuration not stated)	> 100 µM	> 100 µM		> 100 µM	> 100 µM	> 100 µM	> 100 µM	> 100 µM	> 100 µM	> 100 µM	> 100 µM		> 100 µM	> 100 µM	> 100 µM	> 100 µM	> 100 µM	> 100 µM
CCNc1ncnc2n[nH]nc12	> 100 µM	> 100 µM	> 100 µM	> 100 µM	> 100 µM	> 100 µM	> 100 µM	> 100 µM	> 100 µM		> 100 µM			> 100 µM	> 100 µM	> 100 µM	> 100 µM	> 100 µM
COc1ccc([C@@H]2CC(=O)NCCCCNCCCN2)cc1	> 100 µM	> 100 µM	> 100 µM	> 100 µM	> 100 µM	> 100 µM	> 100 µM	> 100 µM	> 100 µM	> 100 µM	> 100 µM		> 100 µM	> 100 µM	> 100 µM	> 100 µM		> 100 µM
CSc1ccc2c(cc1=O)[C@@H](NC(=O)c1ccc(F)cc1)CCc1cc(O)c(O)c(O)c1-2	> 100 µM	> 100 µM	> 100 µM	> 100 µM	> 100 µM	> 100 µM	> 100 µM	> 100 µM	> 100 µM	> 100 µM	> 100 µM		> 100 µM	> 100 µM	> 100 µM	> 100 µM	> 100 µM	> 100 µM
OCSc1nn(CO)c(=S)s1	> 100 µM	92.9 µM	67.1 µM	89.3 µM	45.2 µM	44.8 µM	47.8 µM	49.4 µM	58.9 µM	50.5 µM	37.8 µM		54.5 µM	40.4 µM	54 µM	55.1 µM	43.3 µM	41.7 µM
O=C1C[C@H]2[C@H](c3ccc(Br)cc3)[C@H]3C(=O)c4ccccc4NC(=O)[C@@H]3[C@@]2(O)c2ccccc2N1	56.8 µM	> 100 µM	41.1 µM	> 100 µM		45.5 µM	33.4 µM	> 100 µM	99.2 µM	> 100 µM	> 100 µM		> 100 µM	43.8 µM	15.3 µM	53.3 µM	30.3 µM	4.96 µM
Nc1ccc(N)c2c1C(=O)c1c(N)ccc(N)c1C2=O	> 100 µM	67.8 µM	> 77.7 µM	> 100 µM	> 100 µM	> 100 µM	> 100 µM	> 100 µM	> 100 µM	> 100 µM	> 100 µM		> 100 µM	> 100 µM	> 100 µM	> 68.3 µM	> 100 µM	> 92.3 µM
CCOC(=O)C1(Cc2ccccc2)Cc2ccccc2C1=O (configuration not stated)	> 100 µM	58.6 µM	> 100 µM	97.8 µM	30.7 µM	52.3 µM	> 100 µM	> 100 µM	> 100 µM	> 100 µM	> 100 µM		> 100 µM	> 100 µM	> 100 µM	95.5 µM	> 100 µM	56 µM
CC[C@]12C=CCN3CCC4(c5cc([C@@]6(C(=O)OC)CC7CN(CCc8c6[nH]c6ccccc86)C[C@@H]6CCC[C@H]76)c(OC)cc5N(C)C4[C@](O)(C(=O)OC)C1OC(C)=O)C32 (some centres not stated)	> 10 µM	1.5 µM		> 3.86 µM	> 6.89 µM	> 5.04 µM	7.31 µM	> 10 µM	> 10 µM	1.6 µM	> 10 µM		> 4.71 µM		0.289 µM	> 10 µM	> 6.75 µM	> 10 µM
CC(=O)Nc1ccc(-c2nc3ccccc3s2)cc1O	> 100 µM	45.9 µM	> 100 µM		> 100 µM		57.7 µM	> 100 µM	> 100 µM	> 100 µM	> 100 µM		> 100 µM	73 µM		> 100 µM	> 100 µM	> 100 µM
